Test results taken from patent US20240043429A1, “TRIAZOLO PYRAZINE COMPOUND AND USE THEREOF” (TECHNODERMA MEDICINES, INC., priority 2020, published 2024).

Legend:
Assay type in all cases: biochemical
JAK2 = JAK2 (Homo sapiens, UniProt O60674); assay: Enzyme activity inhibition of JAK kinases (ULight-JAK substrate, Eu-antibody): JAK2; settings: JAK2 1 nM, ATP 10 μM, 1 hour reaction at room temperature; read-out: JAK2 half-maximum inhibitory concentration
Protocol: (§1) 1× test buffer: The test buffer was prepared, and diluted with deionized water (deionized water: test buffer=9:1) to obtain the 1×test buffer. 4× kinase solution: JAK kinase was diluted 4-fold with the kinase reaction buffer to a final concentration (JAK1: 80 nM, JAK2/JAK3/Tyk2: 4 nM). 4×substrate solution: ULight™-JAK (Tyr1023) substrate was diluted with the kinase reaction buffer to 200 nM (final concentration: 50 nM). 4× ATP solution: ATP was diluted 4-fold with the kinase reaction buffer to a final concentration (JAK1: 160 μM, JAK2/JAK3/Tyk2: 40 μM). 4× test compound solution: The test compound was dissolved with DMSO to prepare 10 mM stock solutions, and diluted 3-fold serially to required concentrations, 10 concentrations were set for each compound, and final concentrations of the test compound ranged from 10 μM to 0.5 nM. 4× enzyme reaction stop solution: 1× test buffer was used dissolve EDTA to 40 mM (final concentration of EDTA: 10 mM). 4× test antibody solution: Eu-labeled test antibody (anti-phosphotyrosine (PT66)) was diluted with 1× test buffer to 8 nM (final concentration of antibody: 2 nM). […] After incubation of the antibody, a signal value of each well was measured via Envision plate reader. […]

Tyk2 = Tyk2 (Homo sapiens, UniProt P29597); assay: Enzyme activity inhibition of JAK kinases (ULight-JAK substrate, Eu-antibody): Tyk2; settings: ATP 10 μM, 1 hour reaction at room temperature; read-out: Tyk2 half-maximum inhibitory concentration
Protocol: as §1

JAK1 = JAK1 (Homo sapiens, UniProt P23458); assay: Enzyme activity inhibition of JAK kinases (ULight-JAK substrate, Eu-antibody): JAK1; settings: JAK1 20 nM, ATP 40 μM, 2 hours reaction at room temperature; read-out: JAK1 half-maximum inhibitory concentration
Protocol: as §1

Sequence of Tyk2 (P29597 whole entry): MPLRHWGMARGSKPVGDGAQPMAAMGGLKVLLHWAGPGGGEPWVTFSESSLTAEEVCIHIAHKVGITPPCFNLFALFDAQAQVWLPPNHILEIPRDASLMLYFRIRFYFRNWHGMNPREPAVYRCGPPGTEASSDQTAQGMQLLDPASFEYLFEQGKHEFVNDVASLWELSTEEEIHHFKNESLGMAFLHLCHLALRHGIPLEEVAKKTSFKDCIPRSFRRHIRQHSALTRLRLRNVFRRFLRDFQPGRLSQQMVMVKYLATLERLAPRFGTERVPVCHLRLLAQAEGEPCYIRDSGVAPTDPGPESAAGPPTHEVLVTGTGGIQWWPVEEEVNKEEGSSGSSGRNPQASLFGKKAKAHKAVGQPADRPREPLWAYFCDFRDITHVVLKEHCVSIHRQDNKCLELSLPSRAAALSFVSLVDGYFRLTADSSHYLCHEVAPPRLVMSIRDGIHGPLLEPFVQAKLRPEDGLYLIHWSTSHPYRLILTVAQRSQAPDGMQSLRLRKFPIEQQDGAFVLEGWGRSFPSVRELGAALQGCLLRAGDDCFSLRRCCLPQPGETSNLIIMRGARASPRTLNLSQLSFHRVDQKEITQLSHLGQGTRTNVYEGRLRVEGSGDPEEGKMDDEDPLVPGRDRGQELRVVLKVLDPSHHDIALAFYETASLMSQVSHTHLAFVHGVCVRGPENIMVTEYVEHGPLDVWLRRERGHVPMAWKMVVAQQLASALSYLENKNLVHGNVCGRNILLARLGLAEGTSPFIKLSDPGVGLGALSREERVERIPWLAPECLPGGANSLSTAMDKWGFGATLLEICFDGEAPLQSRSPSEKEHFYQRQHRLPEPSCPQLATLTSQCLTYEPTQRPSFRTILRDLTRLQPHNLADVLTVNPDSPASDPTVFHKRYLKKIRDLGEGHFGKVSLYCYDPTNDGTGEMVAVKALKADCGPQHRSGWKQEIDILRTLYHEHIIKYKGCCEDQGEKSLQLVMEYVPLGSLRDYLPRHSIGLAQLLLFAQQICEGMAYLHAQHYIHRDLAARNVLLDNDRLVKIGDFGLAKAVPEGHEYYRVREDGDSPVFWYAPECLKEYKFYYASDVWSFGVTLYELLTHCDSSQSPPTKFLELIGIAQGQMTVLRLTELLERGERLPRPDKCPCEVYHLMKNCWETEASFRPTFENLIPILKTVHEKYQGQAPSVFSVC
Sequence of JAK2 (O60674 whole entry): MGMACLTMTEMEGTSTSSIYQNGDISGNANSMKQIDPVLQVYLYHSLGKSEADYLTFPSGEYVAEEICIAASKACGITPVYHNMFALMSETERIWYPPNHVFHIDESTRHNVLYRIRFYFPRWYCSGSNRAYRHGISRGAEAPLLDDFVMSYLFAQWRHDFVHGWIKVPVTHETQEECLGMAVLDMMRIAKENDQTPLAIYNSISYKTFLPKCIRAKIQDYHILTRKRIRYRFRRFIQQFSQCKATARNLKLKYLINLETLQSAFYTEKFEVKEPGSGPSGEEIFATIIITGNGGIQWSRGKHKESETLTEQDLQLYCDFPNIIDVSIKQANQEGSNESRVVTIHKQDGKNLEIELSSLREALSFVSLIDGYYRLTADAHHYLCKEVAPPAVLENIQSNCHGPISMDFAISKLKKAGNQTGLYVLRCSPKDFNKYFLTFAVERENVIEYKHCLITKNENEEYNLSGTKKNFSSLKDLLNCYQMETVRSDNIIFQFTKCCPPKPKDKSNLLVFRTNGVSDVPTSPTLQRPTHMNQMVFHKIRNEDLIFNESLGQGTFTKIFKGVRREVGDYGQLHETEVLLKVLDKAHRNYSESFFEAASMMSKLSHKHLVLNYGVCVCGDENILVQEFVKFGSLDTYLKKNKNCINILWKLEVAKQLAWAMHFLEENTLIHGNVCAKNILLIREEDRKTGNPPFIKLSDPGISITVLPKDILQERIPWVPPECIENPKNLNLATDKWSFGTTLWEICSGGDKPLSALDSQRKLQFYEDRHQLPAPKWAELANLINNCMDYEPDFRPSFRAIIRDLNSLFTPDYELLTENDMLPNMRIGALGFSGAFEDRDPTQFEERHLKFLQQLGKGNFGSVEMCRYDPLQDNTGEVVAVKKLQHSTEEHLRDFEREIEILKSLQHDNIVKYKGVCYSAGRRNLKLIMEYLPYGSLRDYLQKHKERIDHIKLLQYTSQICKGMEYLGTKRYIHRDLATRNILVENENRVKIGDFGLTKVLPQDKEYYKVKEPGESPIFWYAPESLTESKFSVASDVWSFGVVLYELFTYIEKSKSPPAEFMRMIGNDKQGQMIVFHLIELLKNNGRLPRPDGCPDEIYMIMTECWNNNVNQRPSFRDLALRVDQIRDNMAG
Sequence of JAK1 (P23458 whole entry): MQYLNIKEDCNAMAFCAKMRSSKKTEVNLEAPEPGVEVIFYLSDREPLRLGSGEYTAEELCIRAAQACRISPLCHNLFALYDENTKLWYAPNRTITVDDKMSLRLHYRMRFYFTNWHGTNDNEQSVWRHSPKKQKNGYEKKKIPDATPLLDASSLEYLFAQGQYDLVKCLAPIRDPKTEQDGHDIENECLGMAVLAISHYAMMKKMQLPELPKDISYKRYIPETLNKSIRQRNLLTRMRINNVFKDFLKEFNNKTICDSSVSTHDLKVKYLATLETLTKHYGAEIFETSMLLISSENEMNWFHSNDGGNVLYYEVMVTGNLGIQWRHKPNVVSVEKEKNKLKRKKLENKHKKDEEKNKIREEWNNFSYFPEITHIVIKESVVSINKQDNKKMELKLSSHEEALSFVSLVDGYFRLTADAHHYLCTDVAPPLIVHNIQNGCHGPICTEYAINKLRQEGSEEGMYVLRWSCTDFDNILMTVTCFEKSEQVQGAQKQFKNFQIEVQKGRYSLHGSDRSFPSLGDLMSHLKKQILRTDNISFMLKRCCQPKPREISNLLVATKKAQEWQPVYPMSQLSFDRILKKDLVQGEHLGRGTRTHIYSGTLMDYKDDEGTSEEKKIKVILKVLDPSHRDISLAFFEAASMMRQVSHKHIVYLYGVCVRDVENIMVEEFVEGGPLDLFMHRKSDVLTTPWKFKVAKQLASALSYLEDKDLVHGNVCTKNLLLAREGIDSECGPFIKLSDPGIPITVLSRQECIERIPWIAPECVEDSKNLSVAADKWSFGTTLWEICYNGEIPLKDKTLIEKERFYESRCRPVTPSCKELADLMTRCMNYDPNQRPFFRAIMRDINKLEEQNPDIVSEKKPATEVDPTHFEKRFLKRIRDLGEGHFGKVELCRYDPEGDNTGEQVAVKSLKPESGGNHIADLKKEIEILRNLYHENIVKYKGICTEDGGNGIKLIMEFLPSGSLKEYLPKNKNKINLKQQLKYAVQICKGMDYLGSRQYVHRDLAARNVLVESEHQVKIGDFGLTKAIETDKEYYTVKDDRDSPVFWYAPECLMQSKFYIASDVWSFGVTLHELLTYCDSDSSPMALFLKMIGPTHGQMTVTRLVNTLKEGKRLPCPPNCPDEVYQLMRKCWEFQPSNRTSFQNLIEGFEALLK

Cn1cc(-c2cn3ncnc3c(-c3ccn([C@]4(CC#N)C[C@@H](C#N)C4)c3)n2)cn1 [TDM-181020, (1r,3r)-3-(cyanomethyl)-3-(3-(6-(1-methyl-1H-pyrazol-4-yl)-[1,2,4]triazolo[1,5-a]pyrazin-8-yl)-1H-pyrrol-1-yl)cyclobutane-1-carbonitrile]
IC50 (JAK2): 2420 nM | IC50 (Tyk2): 111 nM

Cn1cc(-c2cn3ncnc3c(-c3ccn([C@]4(CC#N)C[C@H](C#N)C4)c3)n2)cn1 [TDM-181021, (1s,3s)-3-(Cyanomethyl)-3-(3-(6-(1-Methyl-1H-Pyrazol-4-Yl)-[1,2,4]Triazolo[1,5-a]Pyrazin-8-Yl)-1H-Pyrrol-1-Yl)Cyclobutane-1-Carbonitrile]
IC50 (JAK2): 138 nM | IC50 (Tyk2): 14 nM | IC50 (JAK1): 1210 nM
